Read-outs that look alike come from different tables or passages of the source.
Key:
A2058 cells = test: Cell viability assay (CELL-TITER-GLO) in A2058 cells; assay type: cell-based; settings: A2058 cells, 48 hour treatment, cell viability, read-out: IC50 (μM) A2058
Description: (§1) Cell viability assays were run using standard protocols known to those of skill in art. Cells were plated in 96 well plates at the density of 3,000-10,000 cells per well. Twenty four hours later, cells were treated with increasing concentration of test compounds (1 nM to 1 μM). After another 48 hour, cell survival was measured using CELL-TITER-GLO® reagent (Promega) following the protocol provided by the manufacture. The IC50 value was determined as the concentration of test compound that kills 50% of the cell population.
(§2) Cell viability data generated according to the protocol described in Example 97 was generated for representative compounds in A2058 and U937 cells.

U937 cells = test: Cell viability assay (CELL-TITER-GLO) in U937 cells; assay type: cell-based; settings: U937 cells, 48 hour treatment, cell viability, read-out: IC50 (μM) U937
Description: as §1, §2

Compound	IC50 (A2058 cells; Homo sapiens, A2058, 48 h) [µM]	IC50 (U937 cells; Homo sapiens, U-937, 48 h) [µM]	other results
COC(=O)c1nc2oc1C13c4ccccc4N[C@H]1Oc1ccc(cc13)C[C@H](NC(=O)[C@@H]1C[C@@H](O)CN1)C(=O)NC2C(C)C (stereo partly shown) [Example 36]	–	–	IC50 (A2058 cells; Homo sapiens): > 1 µM; IC50 (U937 cells; Homo sapiens, U-937): > 1 µM
COC(=O)c1nc2oc1C13c4cc(ccc4O[C@@H]1N(S(C)(=O)=O)c1ccccc13)C[C@H](NC(=O)[C@@H](O)C(C)C)C(=O)N[C@H]2C(C)C (stereo partly shown) [Example 37]	> 1	> 1	–
COC(=O)c1nc2oc1C13c4cc(ccc4O[C@@H]1Nc1c(-c4ccccc4)cccc13)C[C@H](NC(=O)[C@@H](O)C(C)C)C(=O)N[C@H]2C(C)C (stereo partly shown) [Example 38]	> 1	> 1	–
COC(=O)c1nc2oc1C13c4cc(ccc4O[C@@H]1Nc1c(-c4cccc5[nH]ccc45)cccc13)C[C@H](NC(=O)[C@@H](O)C(C)C)C(=O)N[C@H]2C(C)C (stereo partly shown) [Example 39]	> 1	> 1	–
COC(=O)c1nc2oc1C13c4cc(ccc4O[C@@H]1Nc1c(-c4c(C)cccc4C)cccc13)C[C@H](NC(=O)[C@@H](O)C(C)C)C(=O)N[C@H]2C(C)C (stereo partly shown) [Example 40]	> 1	> 1	–
COC(=O)c1nc2oc1C13c4cc(ccc4O[C@@H]1Nc1c(-c4ccncc4)cccc13)C[C@H](NC(=O)[C@@H](O)C(C)C)C(=O)N[C@H]2C(C)C (stereo partly shown) [Example 41]	> 1	> 1	–
COC(=O)c1nc2oc1C13c4cc(ccc4O[C@@H]1Nc1c(-c4c(C)c(C)cc(C)c4C)cccc13)C[C@H](NC(=O)[C@@H](O)C(C)C)C(=O)N[C@H]2C(C)C (stereo partly shown) [Example 42]	> 1	> 1	–
CC(C)[C@H](O)C(=O)N[C@H]1Cc2ccc3c(c2)C2(C4=C(C5=NCCO5)N=C(O4)[C@H](C(C)C)NC1=O)c1ccccc1N[C@H]2O3 (stereo partly shown) [Example 43]	0.533	0.697	–
COC(=O)[C@@H]1COC(c2nc3oc2C24c5ccccc5N[C@H]2Oc2ccc(cc24)C[C@H](NC(=O)[C@@H](O)C(C)C)C(=O)N[C@H]3C(C)C)=N1 (stereo partly shown) [Example 44]	> 1	> 1	–
COC(=O)[C@H]1COC(c2nc3oc2C24c5ccccc5N[C@H]2Oc2ccc(cc24)C[C@H](NC(=O)[C@@H](O)C(C)C)C(=O)N[C@H]3C(C)C)=N1 (stereo partly shown) [Example 45]	0.329	0.185	–
CCC(O)(CC)C(=O)N[C@H]1Cc2ccc3c(c2)C2(C4=C(c5nc(C(=O)OC)co5)N=C(O4)[C@H](C(C)C)NC1=O)c1ccccc1N[C@H]2O3 (stereo partly shown) [Example 47]	0.077	0.019	–
COC(=O)c1coc(-c2nc3oc2C24c5ccccc5N[C@H]2Oc2ccc(cc24)C[C@H](NC(=O)[C@@H](O)C(C)(C)C)C(=O)N[C@H]3C(C)C)n1 (stereo partly shown) [Example 48]	0.058	0.039	–
COC(=O)c1coc(-c2nc3oc2C24c5ccccc5N[C@H]2Oc2ccc(cc24)C[C@H](NC(=O)[C@@H](O)C(C)(C)C)C(=O)N[C@H]3C(C)C)n1 (stereo partly shown) [Example 49]	–	–	IC50 (A2058 cells): 0.049 µM; IC50 (U937 cells): 0.04 µM
[H][C@@]1(C(=O)N[C@H]2Cc3ccc4c(c3)C3(C5=C(c6nc(C(=O)OC)co6)N=C(O5)[C@H](C(C)C)NC2=O)c2ccccc2N[C@H]3O4)CCCO1 (stereo partly shown) [Example 50]	0.075	0.04	–
COC(=O)c1coc(-c2nc3oc2C24c5ccccc5N[C@H]2Oc2ccc(cc24)C[C@H](NC(=O)C2(O)CCCCC2)C(=O)N[C@H]3C(C)C)n1 (stereo partly shown) [Example 51]	0.056	0.04	–
CCC(C)(O)C(=O)N[C@H]1Cc2ccc3c(c2)C2(C4=C(c5nc(C(=O)OC)co5)N=C(O4)[C@H](C(C)C)NC1=O)c1ccccc1N[C@H]2O3 (stereo partly shown) [Example 52]	0.108	0.028	–
CCC(C)(C)C(=O)N[C@H]1Cc2ccc3c(c2)C2(C4=C(c5nc(C(=O)OC)co5)N=C(O4)[C@H](C(C)C)NC1=O)c1ccccc1N[C@H]2O3 (stereo partly shown) [Example 53]	0.357	0.068	–
CCCCCCc1cccc2c1N[C@H]1Oc3ccc4cc3C21c1oc(nc1-c1nc(C(=O)OC)co1)[C@H](C(C)C)NC(=O)[C@@H](NC(=O)[C@@H](O)C(C)C)C4 (stereo partly shown) [Example 54]	0.164	0.063	–
CCC(O)(CC)C(=O)N[C@H]1Cc2ccc3c(c2)C2(C4=C(c5nc(C(=O)O)co5)N=C(O4)[C@H](C(C)C)NC1=O)c1ccccc1N[C@H]2O3 (stereo partly shown) [Example 55]	–	–	IC50 (A2058 cells; Homo sapiens): > 1 µM; IC50 (U937 cells; Homo sapiens, U-937): 0.9 µM
CC(C)[C@H](O)C(=O)N[C@H]1Cc2ccc3c(c2)C2(C4=C(c5nc(C(=O)O)co5)N=C(O4)[C@H](C(C)C)NC1=O)c1ccccc1N[C@H]2O3 (stereo partly shown) [Example 56]	–	–	IC50 (A2058 cells; Homo sapiens): 0.841 µM; IC50 (U937 cells; Homo sapiens, U-937): 0.736 µM
CNC(C(=O)N[C@H]1Cc2ccc3c(c2)C2(C4=C(c5nc(C(=O)OC)co5)N=C(O4)[C@H](C(C)C)NC1=O)c1ccccc1N[C@H]2O3)C(C)C (stereo partly shown) [Example 57]	0.313	0.111	–

Compound	IC50 (A2058 cells; Homo sapiens, A2058, 48 h) [µM]	IC50 (U937 cells; Homo sapiens, U-937, 48 h) [µM]	other results
CNC(=O)c1coc(-c2nc3oc2C24c5ccccc5N[C@H]2Oc2ccc(cc24)C[C@H](NC(=O)[C@@H](O)C(C)C)C(=O)N[C@H]3C(C)C)n1 (stereo partly shown) [Example 58]	> 1	> 1	–
CC(C)[C@H](O)C(=O)N[C@H]1Cc2ccc3c(c2)C2(C4=C(c5nc(C(=O)NC(C)(C)C)co5)N=C(O4)[C@H](C(C)C)NC1=O)c1ccccc1N[C@H]2O3 (stereo partly shown) [Example 59]	0.514	0.604	–
CC(C)[C@H](O)C(=O)N[C@H]1Cc2ccc3c(c2)C2(C4=C(c5nc(C(=O)N6CCCC6)co5)N=C(O4)[C@H](C(C)C)NC1=O)c1ccccc1N[C@H]2O3 (stereo partly shown) [Example 60]	0.636	0.562	–
CCCCNC(=O)c1coc(-c2nc3oc2C24c5ccccc5N[C@H]2Oc2ccc(cc24)C[C@H](NC(=O)[C@@H](O)C(C)C)C(=O)N[C@H]3C(C)C)n1 (stereo partly shown) [Example 62]	0.243	0.192	–
CC(C)[C@H](O)C(=O)N[C@H]1Cc2ccc3c(c2)C2(C4=C(c5nc(C(=O)N6CCN(C)CC6)co5)N=C(O4)[C@H](C(C)C)NC1=O)c1ccccc1N[C@H]2O3 (stereo partly shown) [Example 63]	–	–	IC50 (A2058 cells; Homo sapiens): 0.247 µM; IC50 (U937 cells; Homo sapiens, U-937): 0.162 µM
CC(C)[C@H](O)C(=O)N[C@H]1Cc2ccc3c(c2)C2(C4=C(c5nc(C(=O)NC6CCCc7ccccc76)co5)N=C(O4)[C@H](C(C)C)NC1=O)c1ccccc1N[C@H]2O3 (stereo partly shown) [Example 64]	0.184	0.184	–
CC(C)[C@H](O)C(=O)N[C@H]1Cc2ccc3c(c2)C2(C4=C(c5nc(C(=O)N(C)C)co5)N=C(O4)[C@H](C(C)C)NC1=O)c1ccccc1N[C@H]2O3 (stereo partly shown) [Example 65]	0.553	0.235	–
CC(C)[C@H](O)C(=O)N[C@H]1Cc2ccc3c(c2)C2(C4=C(c5nc(C(N)=O)co5)N=C(O4)[C@H](C(C)C)NC1=O)c1ccccc1N[C@H]2O3 (stereo partly shown) [Example 66]	0.363	0.218	–
COC(=O)c1nc(-c2nc3oc2C24c5ccccc5N[C@H]2Oc2ccc(cc24)CC(NC(=O)[C@@H](O)C(C)C)C(=O)N[C@H]3C(C)C)oc1C (stereo partly shown) [Example 67]	0.047	0.024	–
COC(=O)c1nc(-c2nc3oc2C24c5ccccc5N[C@H]2Oc2ccc(cc24)C[C@H](NC(=O)[C@@H](O)C(C)(C)C)C(=O)N[C@H]3C(C)C)oc1C (stereo partly shown) [Example 68]	0.066	0.057	–
CCC(O)(CC)C(=O)N[C@H]1Cc2ccc3c(c2)C2(C4=C(c5nc(C(=O)OC)c(C)o5)N=C(O4)[C@H](C(C)C)NC1=O)c1ccccc1N[C@H]2O3 (stereo partly shown) [Example 69]	0.17	0.081	–
COC(=O)c1nc(-c2nc3oc2C24c5ccccc5N[C@H]2Oc2ccc(cc24)C[C@H](NC(=O)[C@@H](O)CC(C)C)C(=O)N[C@H]3C(C)C)oc1C (stereo partly shown) [Example 70]	0.08	0.065	–
COc1ccc(-c2cnc(-c3nc4oc3C35c6ccccc6N[C@H]3Oc3ccc(cc35)CC(NC(=O)[C@@H](O)C(C)C)C(=O)N[C@H]4C(C)C)o2)cc1 (stereo partly shown) [Example 71]	0.639	> 1	–
CC(C)[C@H](O)C(=O)NC1Cc2ccc3c(c2)C2(C4=C(c5ncc(-c6ccccc6)o5)N=C(O4)[C@H](C(C)C)NC1=O)c1ccccc1N[C@H]2O3 (stereo partly shown) [Example 72]	> 1	> 1	–
CCC(O)(CC)C(=O)N[C@H]1Cc2ccc3c(c2)C2(C4=C(c5nc(CO)co5)N=C(O4)[C@H](C(C)C)NC1=O)c1ccccc1N[C@H]2O3 (stereo partly shown) [Example 74]	–	–	IC50 (A2058 cells; Homo sapiens): 0.292 µM; IC50 (U937 cells; Homo sapiens, U-937): 0.11 µM
CCC(O)c1coc(-c2nc3oc2C24c5ccccc5N[C@H]2Oc2ccc(cc24)C[C@H](NC(=O)[C@@H](O)C(C)C)C(=O)N[C@H]3C(C)C)n1 (stereo partly shown) [Example 75]	0.226	0.229	–
COCc1coc(-c2nc3oc2C24c5ccccc5N[C@H]2Oc2ccc(cc24)C[C@H](NC(=O)[C@@H](O)C(C)C)C(=O)N[C@H]3C(C)C)n1 (stereo partly shown) [Example 76]	0.114	0.127	–
CCCCCCc1oc(-c2nc3oc2C24c5ccccc5N[C@H]2Oc2ccc(cc24)C[C@H](NC(=O)[C@@H](O)C(C)C)C(=O)N[C@H]3C(C)C)nc1C(=O)OC (stereo partly shown) [Example 77]	0.08	0.018	–
CC(C)[C@H](O)C(=O)N[C@H]1Cc2ccc3c(c2)C2(C4=C(c5ncco5)N=C(O4)[C@H](C(C)C)NC1=O)c1ccccc1N[C@H]2O3 (stereo partly shown) [Example 78]	0.154	0.052	–
Cc1coc(-c2nc3oc2C24c5ccccc5N[C@H]2Oc2ccc(cc24)C[C@H](NC(=O)[C@@H](O)C(C)C)C(=O)N[C@H]3C(C)C)n1 (stereo partly shown) [Example 79]	0.174	0.071	–

— patent publication US7989482B2, “Indoline anti-cancer agents” (Joyant Pharmaceuticals, Inc., priority 2008, dated 2011)
